We go through 5 compounds from US9045426B2, “Method for producing 1,2-dihydropyridine-2-one compound” (EISAI R&D MANAGEMENT CO., LTD., priority 2004, dated 2015).

Data set [1] concerns AMPA (alpha -amino-3-hydroxy-5-methyl-4-isoxazolepropionic acid) receptor. To be noted: cited from earlier work.
Data set [2] is described as follows: Physical stability in mixing operation in the presence of water or water-ethanol (1:1) mixed solution. The class given is physicochemical. To be noted: room temperature, then dried at about 60° C. As to the method: Physical Stability in Mixing-Operation in the Presence of Water or Water-Ethanol (1:1) Mixed Solution
About 150 mg of respective crystals are placed in an agate mortar, and the mixing operation is carried out at room temperature for a few minutes while the dropwise addition of water (or water-ethanol (1:1) mixed solution) continues.
Subsequently, respective crystals are dried at about 60° C. for 2 to 3 hours.

The nature of data set [3]: Minimum ignition energy (blown-up type dust explosion test). The format is physicochemical. Particulars: 24° C., humidity 49%, dust concentration 1250 g/m^3. The source says: (§1) Minimum Ignition Energy and Lower Explosion Concentration Limit
(§2) An appropriate amount of Hydrate crystal corresponding to a concentration was uniformly put on sample dish of blown-up type dust explosion test apparatus. 50 kPa of air was compressed in a 1.3 L pressure tank, and the air was introduced into a glass cylinder by opening of a solenoid operated valve to form dust clouds. A discharge electrode was supplied with energy after 0.1 seconds after the opening of the solenoid operated valve. The criterion of ignition is an arrival of flame at an ignition mark set 100 mm above the discharge electrode.
(3) Measurement Conditions for Minimum Ignition Energy
(§3) Temperature of the measurement room: 24° C.
(§4) Popping pressure of compressed air: 50 kPa
(§5) Ignition start time: 0.1 sec
Repetition of ignition test: 10 times
(§6) Blown-up type dust explosion test apparatus (Environmental Technology Co., Ltd. DES -10)

A short description of data set [4]: Influence of change in temperature on Hydrate crystal (powder X-ray diffraction). Particulars: 30 to 100 to 30° C.; returns to Hydrate when the temperature was lowered. The format is physicochemical. As to the method:
(§7) Influence of Change in Temperature and Humidity on Hydrate Crystal
(§8) Rigaku X-ray DTA system: RINT-2000 manufactured by Rigaku Corporation
(§9) Crystals obtained in Example 5 (Hydrate crystal) were ground in a mortar and then sampled on a 13-mm diameter glass plate. Measurement was carried out under the conditions below.
Scanning range (2θ): 5 to 40°
Measurement temperature was changed as follows in turn and powder X-ray diffraction patterns were measured at the respective temperatures in sequence: 30→40→50→60→70→80→100→70→60→50→40 and 30° C.

Data set [5] is described as follows: Chargeability (static potential of the powder after stirring). The class given is physicochemical. Particulars: about 1 g stirred for 30 minutes with fluoroplastic-coated stirring bar. As to the method: About 1 g of respective compounds is weighed into a weighing bottle (diameter of 35 mm). A stifling bar [fluoroplastic (tetrafluoroethylene resin) coating; 20 mm] is placed in the bottle and after the lid is in place, the powders are stirred for 30 minutes. The lid is opened at the same time that stirring is stopped; and the static potential of the powder is measured using a static potential measuring instrument.
STATIRON-DZ3 manufactured by Shishido Electrostatic, Ltd.

Data set [6] in a line: Lower explosion concentration limit (blown-up type dust explosion test). The class given is physicochemical. Particulars: 24° C., humidity 49%, ignition discharge energy 10 J.
From the text: as §1, §2
(2) Measurement Conditions for Lower Explosion Concentration Limit
as §3, §4, §5
Repetition of ignition test: 5 times
Ignition discharge energy: 10 J
as §6

A short description of data set [7]: Influence of change in humidity on Hydrate crystal (powder X-ray diffraction). The format is physicochemical. Particulars: 4 to 90 to 5% RH. As to the method:
as §7, §8, §9
Measurement humidity was changed as follows in turn and powder X-ray diffraction patterns were measured at the respective humidities in sequence: […]

For `N#Cc1ccccc1-c1cc(-c2ccccn2)cn(-c2ccccc2)c1=O` [Compound (A), 3-(2-cyanophenyl)-5-(2-pyridyl)-1-phenyl-1,2-dihydropyridin-2-one], the “antagonistic action against AMPA receptor” value in data set [1] was “significant antagonistic action”.
`N#Cc1ccccc1-c1cc(-c2ccccn2)cn(-c2ccccc2)c1=O` [Example 6, 3-(2-cyanophenyl)-5-(2-pyridyl)-1-phenyl-1,2-dihydropyridin-2-one]: in data set [2], the “change in crystal form during mixing operation (powder X-ray diffraction)” value (“change … (powder X-ray diffraction)” below) is “no change in crystal form”.
With `N#Cc1ccccc1-c1cc(-c2ccccn2)cn(-c2ccccc2)c1=O.O` [Example 5, 3-(2-cyanophenyl)-5-(2-pyridyl)-1-phenyl-1,2-dihydropyridin-2-one hydrate], the “Minimum Ignition Energy” value in data set [3] lay in the range of 50 to 100 mJ. The “change … (powder X-ray diffraction)” value in data set [2] is recorded as “no change in crystal form”. In addition, in data set [4], the “temperature at which Hydrate crystal transforms to Anhydrous crystal form III” value is at least 60 °C. In addition, the “static potential of the powder (chargeability)” value in data set [5] was determined as 0 V. Moreover, the “Lower Explosion Concentration Limit” value in data set [6] is listed as 160-170 g/m^3. The “humidity under which crystals stay Hydrate crystal” value in data set [7] is given as at least 10 % RH. Besides, in data set [7] (reversible), the “humidity under which Hydrate crystal changes to Anhydrous crystal form III” value is reported as at most 10 % RH.
In the case of `N#Cc1ccccc1-c1cc(-c2ccccn2)cn(-c2ccccc2)c1=O` [Reference Example 1, 3-(2-cyanophenyl)-5-(2-pyridyl)-1-phenyl-1,2-dihydropyridin-2-one, reference compound], the “change … (powder X-ray diffraction)” value in data set [2] is “underwent a change in crystal form”. Besides, the “static potential of the powder (chargeability)” value in data set [5] is given as 70-100 V.
Consider `N#Cc1ccccc1-c1cc(-c2ccccn2)cn(-c2ccccc2)c1=O` [Example 7, 3-(2-cyanophenyl)-5-(2-pyridyl)-1-phenyl-1,2-dihydropyridin-2-one], for which the “change … (powder X-ray diffraction)” value in data set [2] is reported as “no change in crystal form”.
